Source: publication PMC3700907 (PLoS ONE, 2013)
“And” between values parts separate entries of the source, which are not always exact repeats. Equal values may be shown once. Read-outs that look alike come from different tables or passages of the source.

Assays:
mPrP(23–230) monomer = mPrP(23–230) monomer (Mus musculus, UniProt P04925); conditions: pH 6
[1] = type: physicochemical
[2] = type: physicochemical; conditions: pH 3.7

Sequence of mPrP(23–230) monomer (P04925 23-230 limits assumed): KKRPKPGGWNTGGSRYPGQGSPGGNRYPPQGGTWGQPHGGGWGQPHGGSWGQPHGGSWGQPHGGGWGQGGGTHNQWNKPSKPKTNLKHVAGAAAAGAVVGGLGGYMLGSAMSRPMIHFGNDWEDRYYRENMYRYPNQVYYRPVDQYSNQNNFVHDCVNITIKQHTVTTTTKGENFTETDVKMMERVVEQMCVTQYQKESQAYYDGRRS

Substance | average lag time of amyloid formation of mPrP(23–230) relative to unseeded reaction (mPrP(23–230) monomer) | cross-seeding effect on mPrP(23–230) monomer (mPrP(23–230) monomer) | monomer concentration remained in solution after fibrillization ([1]; pH 7.4) | average lag time for amyloidogenesis [2] | monomer concentration remained in solution after fibrillization ([1]; pH 3.7)
Ac-NLKHVAGAAAAGAVVGGLGG-NH2 [mPrP(107–126)] | slightly prolonged | no seeding effect | 12.4 µM and 11.1 µM and 6.6 µM | – | –
Ac-YMLGSAMSRPMIHFGND-NH2 [mPrP(127–143)] | – | induced immediately | – | hardly detectable | 32.6 µM and 35.6 µM and 27.2 µM
